# Assay results reported in patent US9365541B2, “Compounds for use in the treatment of parasitic diseases” (IRBM—SCIENCE PARK S.P.A., priority 2012, dated 2016).
# Key:
# [1] = tested on: Plasmodium falciparum 3D7; assay: P. falciparum growth inhibition assay (Pf-LDH); type: cell-based; details: Plasmodium falciparum, Erythrocyte; P. falciparum 3D7 infected erythrocytes, 72 h incubation, PfLDH readout
# Method in brief: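 P. falciparum 3D7 (chloroquine-sensitive) at 0.25% parasitemia and 2% hematocrit was incubated with compound for 72 h at 37° C under 4% CO2/3% O2/93% N2. After freeze-thaw, PfLDH activity was read at 650 nm with lactate/APAD/NBT/diaphorase mix (pH 8.0).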
# human HDAC1 = target: T1, human HDAC1 (Homo sapiens, UniProt Q13547); assay: Homo sapiens HDAC1 inhibition assay (Fluor-de-Lys, enzymatic); type: biochemical; details: human HDAC enzymatic assay; read-out: hHDAC IC50
# T1 construct: made in house; host or cells: HeLa (ATCC CCL-2), mammalian cells
# T1 sequence (Q13547 whole entry): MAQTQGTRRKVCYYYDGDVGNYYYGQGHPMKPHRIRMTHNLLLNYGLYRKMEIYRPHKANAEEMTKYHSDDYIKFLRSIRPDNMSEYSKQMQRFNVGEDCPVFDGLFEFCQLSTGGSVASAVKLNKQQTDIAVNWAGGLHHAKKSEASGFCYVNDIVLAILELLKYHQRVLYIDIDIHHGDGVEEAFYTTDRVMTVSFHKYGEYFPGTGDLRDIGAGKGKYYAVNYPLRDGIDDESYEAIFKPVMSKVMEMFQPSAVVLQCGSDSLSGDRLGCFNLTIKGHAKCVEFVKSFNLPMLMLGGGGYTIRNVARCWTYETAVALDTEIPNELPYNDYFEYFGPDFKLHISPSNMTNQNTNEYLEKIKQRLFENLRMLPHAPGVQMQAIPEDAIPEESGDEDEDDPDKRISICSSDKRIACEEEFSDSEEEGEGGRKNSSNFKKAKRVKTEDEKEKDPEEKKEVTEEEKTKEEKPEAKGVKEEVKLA
# Method in brief: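 Product developed with trypsin developer containing 2 μM TSA to stop the reaction; fluorescence measures deacetylase activity, inversely related to inhibition.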
EC50 [1],IC50 (human HDAC1),SMILES
1 to 5 µM,< 1 µM,"CNC(=O)CCCCC[C@H](NC(=O)CCc1cnn(C)c1)c1ncc(-c2ccc3ccccc3c2)[nH]1 [Entry 199, (S)-N-methyl-7-(3-(1-methyl-1H-pyrazol-4-yl)propanamido)-7-(5-(naphthalen-2-yl)-1H-imidazol-2-yl)heptanamide]"
1 to 5 µM,> 5 µM,"CNC(=O)CCCCC[C@H](NC(=O)c1csc(-c2cccnc2)n1)c1ncc(-c2ccc3ccccc3c2)[nH]1 [Entry 197, (S)-N-(7-(methylamino)-1-(5-(naphthalen-2-yl)-1H-imidazol-2-yl)-7-oxoheptyl)-2-(pyridin-3-yl)thiazole-4-carboxamide]"
1 to 5 µM,1 to 5 µM,"CNC(=O)CCCCC[C@H](NC(=O)c1ccc(N2CC(=O)NC2=O)cc1)c1ncc(-c2cc3ccccc3nc2OC)[nH]1 [Entry 183, (S)-4-(2,4-dioxoimidazolidin-1-yl)-N-(1-(5-(2-methoxyquinolin-3-yl)-1H-imidazol-2-yl)-7-(methylamino)-7-oxoheptyl)benzamide]"
> 5 µM,1 to 5 µM,"CNC(=O)CCCCC[C@H](NC(=O)CN(C)C)c1ncc(-c2cc3ccccc3nc2OC)[nH]1 [Entry 179, (S)-7-(2-(dimethyl-amino)acetamido)-7-(5-(2-methoxyquinolin-3-yl)-1H-imidazol-2-yl)-N-methylheptanamide]"
1 to 5 µM,1 to 5 µM,"CNC(=O)CCCCC[C@H](NC(=O)c1cc(C(C)C)on1)c1ncc(-c2ccc3ccncc3c2)[nH]1 [Entry 189, (S)-5-isopropyl-N-(1-(5-(isoquinolin-7-yl)-1H-imidazol-2-yl)-7-(methylamino)-7-oxoheptyl)isoxazole-3-carboxamide]"
< 1 µM,< 1 µM,"CNC(=O)CCCCC[C@H](NC(=O)c1cccnc1)c1ncc(-c2ccc3ccccc3c2)[nH]1 [Entry 175, (S)-N-(7-(methylamino)-1-(5-(naphthalen-2-yl)-1H-imidazol-2-yl)-7-oxo-heptyl)nicotinamide]"
< 1 µM,< 1 µM,"CNC(=O)CCCCC[C@H](NC(=O)CCc1c(C)nc2ncnn2c1C)c1ncc(-c2cc3ccccc3nc2OC)[nH]1 [Entry 186, (S)-7-(3-(5,7-dimethyl-[1,2,4]triazolo[1,5-a]pyrimidin-6-yl)propanamido)-7-(5-(2-methoxyquinolin-3-yl)-1H-imidazol-2-yl)-N-methylheptanamide]"
1 to 5 µM,1 to 5 µM,"CNC(=O)CCCCC[C@H](NC(=O)C1CCC1(F)F)c1ncc(-c2ccc3ccncc3c2)[nH]1 (stereo partly drawn) [Entry 145, 2,2-difluoro-N-((S)-1-(5-(isoquinolin-7-yl)-1H-imidazol-2-yl)-7-(methylamino)-7-oxo-heptyl)cyclobutane-carboxamide]"
1 to 5 µM,> 5 µM,"CNC(=O)CCCCC[C@H](NC(=O)c1cncs1)c1ncc(-c2ccc(-c3ccccc3)nc2OC)[nH]1 [Entry 192, (S)-N-(1-(5-(2-methoxy-6-phenylpyridin-3-yl)-1H-imidazol-2-yl)-7-(methylamino)-7-oxoheptyl)thiazole-5-carboxamide]"
> 5 µM,1 to 5 µM,"CNC(=O)CCCCC[C@H](NC(=O)CN1CCN(C)CC1)c1ncc(-c2ccc3ccccc3c2)[nH]1 [Entry 165, (S)-N-methyl-7-(2-(4-methylpiperazin-1-yl)acetamido)-7-(5-(naphthalen-2-yl)-1H-imidazol-2-yl)heptanamide]"
1 to 5 µM,> 5 µM,"CNC(=O)CCCCC[C@H](NC(=O)c1cnsc1)c1ncc(-c2ccc(-c3ccn(C)n3)cc2)o1 [Entry 226, (S)-N-(1-(5-(4-(1-methyl-1H-pyrazol-3-yl)phenyl)oxazol-2-yl)-7-(methylamino)-7-oxoheptyl)isothiazole-4-carboxamide]"

# Further lines, the compound ahead of its results:
SMILES,EC50 [1],IC50 (human HDAC1)
"CNC(=O)CCCCC[C@H](NC(=O)c1cncs1)c1ncc(-c2ccc(-c3ncccn3)cc2)[nH]1 [Entry 120, (S)-N-(7-(methylamino)-7-oxo-1-(5-(4-(pyrimidin-2-yl)phenyl)-1H-imidazol-2-yl)heptyl)thiazole-5-carboxamide]",1 to 5 µM,1 to 5 µM
"CNC(=O)CCCCC[C@H](NC(=O)c1ccccc1-n1cnnn1)c1ncc(-c2ccc3ccccc3c2)[nH]1 [Entry 87, (S)-N-(7-(methylamino)-1-(5-(naphthalen-2-yl)-1H-imidazol-2-yl)-7-oxoheptyl)-2-(1H-tetrazol-1-yl)benzamide]",1 to 5 µM,1 to 5 µM
"CNC(=O)CCCCC[C@H](NC(=O)C1(F)CCN(C)CC1)c1ncc(-c2ccc3ccncc3c2)[nH]1 [Entry 111, (S)-4-fluoro-N-(1-(5-(isoquinolin-7-yl)-1H-imidazol-2-yl)-7-(methylamino)-7-oxoheptyl)-1-methylpiperidine-4-carboxamide]",> 5 µM,1 to 5 µM
"CNC(=O)CCCCC[C@H](NC(=O)c1cncs1)c1ncc(-c2ccc(Cl)cc2OC)[nH]1 [Entry 57, (S)-N-(1-(5-(4-chloro-2-methoxyphenyl)-1H-imidazol-2-yl)-7-(methylamino)-7-oxoheptyl)thiazole-5-carboxamide]",1 to 5 µM,1 to 5 µM
CNC(=O)CCCCC[C@H](NC(=O)Cn1nnc(N2CCCC2)n1)c1ncc(-c2ccc3ccccc3c2)[nH]1 [Entry 20],1 to 5 µM,< 1 µM
"CNC(=O)CCCCC[C@H](NC(=O)Cn1ccnn1)c1ncc(-c2cc3ccccc3nc2OC)[nH]1 [Entry 6, (S)-7-(2-(1H-1,2,3-triazol-1-yl)acetamido)-7-(5-(2-methoxyquinolin-3-yl)-1H-imidazol-2-yl)-N-methylheptanamide]",1 to 5 µM,1 to 5 µM
"CNC(=O)CCCCC[C@H](NC(=O)c1cncs1)c1ncc(-c2ccc(CN)cc2)[nH]1 [Entry 60, (S)-N-(1-(5-(4-(amino-methyl)phenyl)-1H-imidazol-2-yl)-7-(methylamino)-7-oxoheptyl)thiazole-5-carboxamide]",> 5 µM,1 to 5 µM
"CNC(=O)CCCCC[C@H](NC(=O)C1CC1c1ccncc1)c1ncc(-c2ccc3ccncc3c2)[nH]1 (stereo partly drawn) [Entry 48, N-((S)-1-(5-(isoquinolin-7-yl)-1H-imidazol-2-yl)-7-(methylamino)-7-oxoheptyl)-2-(pyridin-4-yl)cyclopropane-carboxamide]",1 to 5 µM,1 to 5 µM
"CNC(=O)CCCCC[C@H](NC(=O)c1cnsn1)c1ncc(-c2ccc3ccccc3c2)[nH]1 [Entry 45, (S)-N-(7-(methylamino)-1-(5-(naphthalen-2-yl)-1H-imidazol-2-yl)-7-oxoheptyl)-1,2,5-thiadiazole-3-carboxamide]",> 5 µM,1 to 5 µM
"CNC(=O)CCCCC[C@H](NC(=O)C1CCN(C)CC1)c1ncc(-c2ccc3ccncc3c2)[nH]1 [Entry 118, (S)-N-(1-(5-(isoquinolin-7-yl)-1H-imidazol-2-yl)-7-(methylamino)-7-oxoheptyl)-1-methylpiperidine-4-carboxamide]",1 to 5 µM,1 to 5 µM
"CNC(=O)CCCCC[C@H](NC(=O)c1cncs1)c1ncc(-c2ccc3c(ccn3C)c2)[nH]1 [Entry 132, (S)-N-(1-(5-(1-methyl-1H-indol-5-yl)-1H-imidazol-2-yl)-7-(methylamino)-7-oxoheptyl)thiazole-5-carboxamide]",< 1 µM,< 1 µM
"CNC(=O)CCCCC[C@H](NC(=O)c1ccc2cnccc2c1)c1ncc(-c2ccc3ccccc3c2)[nH]1 [Entry 114, (S)-N-(7-(methylamino)-1-(5-(naphthalen-2-yl)-1H-imidazol-2-yl)-7-oxo-heptyl)isoquinoline-6-carboxamide]",1 to 5 µM,1 to 5 µM
CNC(=O)CCCCC[C@H](NC(=O)CN1CCCCC1)c1ncc(-c2ccc3ccccc3c2)[nH]1 [Entry 1],1 to 5 µM,1 to 5 µM
"CNC(=O)CCCCC[C@H](NC(=O)c1cncs1)c1ncc(-c2cc3ccccc3nc2Cl)[nH]1 [Entry 80, (S)-N-(1-(5-(2-chloroquinolin-3-yl)-1H-imidazol-2-yl)-7-(methylamino)-7-oxoheptyl)thiazole-5-carboxamide]",1 to 5 µM,1 to 5 µM
"CNC(=O)CCCCC[C@H](NC(=O)C1CN(C)C1)c1ncc(-c2cc3ccccc3[nH]c2=O)[nH]1 [Entry 18, (S)-1-methyl-N-(7-(methylamino)-7-oxo-1-(5-(2-oxo-1,2-dihydroquinolin-3-yl)-1H-imidazol-2-yl)heptyl)azetidine-3-carboxamide]",> 5 µM,1 to 5 µM
CNC(=O)CCCCC[C@H](NC(=O)C(C)n1cccn1)c1ncc(-c2cc3ccccc3nc2OC)[nH]1 (some centres unmarked) [Entry 103],1 to 5 µM,> 5 µM
"CNC(=O)CCCCC[C@H](NC(=O)CCc1nc2ccccc2s1)c1ncc(-c2ccc(-n3cccn3)cc2)[nH]1 [Entry 142, (S)-7-(5-(4-(1H-pyrazol-1-yl)phenyl)-1H-imidazol-2-yl)-7-(3-(benzo[d]thiazol-2-yl)propanamido)-N-methylheptanamide]",1 to 5 µM,1 to 5 µM
"CNC(=O)CCCCC[C@H](NC(=O)CN1CCC(N(C)C)C1)c1ncc(-c2cc3ccccc3nc2OC)[nH]1 (stereo partly drawn) [Entry 32, (7S)-7-(2-(3-(dimethyl-amino)pyrrolidin-1-yl)acetamido)-7-(5-(2-methoxyquinolin-3-yl)-1H-imidazol-2-yl)-N-methylheptanamide]",> 5 µM,< 1 µM
"CNC(=O)CCCCC[C@H](NC(=O)c1cccc(N2CCOCC2)c1)c1ncc(-c2ccc3ccccc3c2)[nH]1 [Entry 64, (S)-N-(7-(methylamino)-1-(5-(naphthalen-2-yl)-1H-imidazol-2-yl)-7-oxoheptyl)-3-morpholino-benzamide]",1 to 5 µM,> 5 µM
CCc1nc2ccccc2n1CCC(=O)N[C@@H](CCCCCC(=O)NC)c1ncc(-c2ccc(C(F)(F)F)cc2)[nH]1 [Entry 28],1 to 5 µM,< 1 µM
